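How tested: cells in 96-well plates exposed to compound for 48 hours at five concentrations. GI50 is the concentration that inhibits growth by half.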 Active and inactive are the calls of the source. No stated cut-off is given here; in the data, active = GI50 up to about 1.1 µM and inactive = higher.

Test systems include NCI-H460; SK-MEL-2; HCT-116; HCT-15; SN12C; ACHN; UO-31; OVCAR-3; TK-10; Malme-3M; NCI-H226; MOLT-4; RPMI-8226; OVCAR-5; SK-MEL-28; SF-268; M14; SK-MEL-5; A498; NCI-H23.
Test in all cases: NCI-60 cell line screen, 48 h

As to `O=C/C(=C1/C=Cc2cc([N+](=O)[O-])ccc2S1)c1ccccc1`, the GI50 with NCI-H460 was > 100 µM (inactive); in the test on SK-MEL-2 it was > 100 µM (inactive); with HCT-116 it was > 100 µM (inactive); in the test with HCT-15, more than 100 µM; in the test with SN12C it was > 100 µM (inactive); with ACHN, > 100 µM (inactive). Also, the GI50 in the test with UO-31, in the test on OVCAR-3, in the test with TK-10, in the test on Malme-3M, with NCI-H226 and with MOLT-4 was > 100 µM (inactive) each time. The GI50 in the test on RPMI-8226, with OVCAR-5, in the test on SK-MEL-28, in the test on SF-268, with M14 and with SK-MEL-5 was > 100 µM (inactive) each time. Also, the GI50 in the test on A498 and in the test with NCI-H23 was > 100 µM (inactive) in each case.
With `CCOC(=O)C(=Cn1c(=S)[nH]c2ccc([N+](=O)[O-])cc21)C(=O)OCC`, the GI50 in the test with NCI-H460 is > 100 µM (inactive); in the test with SK-MEL-2 it was > 100 µM (inactive); in the test on HCT-116, > 100 µM (inactive); with SN12C, > 100 µM (inactive); in the test with ACHN it was > 100 µM (inactive); with UO-31, 87.9 µM (inactive). Besides, the GI50 was > 100 µM (inactive) with OVCAR-3; > 100 µM (inactive) in the test on TK-10; > 100 µM (inactive) with Malme-3M; 39.8 µM (inactive) with NCI-H226; > 100 µM (inactive) in the test with MOLT-4; > 100 µM (inactive) in the test on RPMI-8226. The GI50 in the test on OVCAR-5, in the test on SK-MEL-28, in the test on SF-268, in the test with M14, with SK-MEL-5 and in the test on A498 was > 100 µM (inactive) in each case. Further, the GI50 with NCI-H23 was > 100 µM (inactive).
Consider `CC1=NN(C(=O)c2ccccc2O)C(=O)/C1=C/c1c(O)ccc2ccccc12`, for which the GI50 is 0.676 µM (active) with NCI-H460; 1.14 µM (inactive) in the test with SK-MEL-2; 0.689 µM (active) with HCT-116; 0.48 µM with HCT-15; 1.22 µM (inactive) in the test with SN12C; 0.955 µM (active) with ACHN. Also, the GI50 was 0.968 µM (active) in the test on UO-31; 0.201 µM (active) with OVCAR-3; 8.87 µM (inactive) in the test with TK-10; 1.52 µM (inactive) in the test on Malme-3M; 1.53 µM (inactive) with NCI-H226; 1.8 µM (inactive) with MOLT-4. The GI50 in the test on RPMI-8226 is 1.46 µM (inactive); in the test with OVCAR-5, 4.11 µM (inactive); in the test with SK-MEL-28, 1.69 µM (inactive); with SF-268, 0.723 µM (active); in the test on M14 it was 0.587 µM (active); in the test on SK-MEL-5, 1.19 µM (inactive). Besides, the GI50 in the test on A498 was 2.44 µM (inactive); in the test with NCI-H23, 1.43 µM (inactive).
In the case of `COc1ccc(C2c3cc4c(cc3OC(NCCO)C2C)OCO4)cc1` (stereo not drawn), the GI50 in the test with NCI-H460 is 22.8 µM (inactive); in the test on SK-MEL-2, 19.3 µM (inactive); in the test on HCT-116, 17.3 µM (inactive); in the test on HCT-15, 17.7 µM; in the test with SN12C, 23.8 µM (inactive); in the test on ACHN it was 29.6 µM (inactive). For the same compound, the GI50 in the test on UO-31 is 20.5 µM (inactive); in the test on OVCAR-3, 17.8 µM (inactive); in the test with TK-10, 23.8 µM (inactive); with Malme-3M, 18.7 µM (inactive); with NCI-H226 it was 28.2 µM (inactive); in the test on MOLT-4 it was 16.6 µM (inactive). In addition, the GI50 was 22.1 µM (inactive) in the test with RPMI-8226; 39.7 µM (inactive) in the test with OVCAR-5; 25.1 µM (inactive) with SK-MEL-28; 23.2 µM (inactive) in the test with SF-268; 26.4 µM (inactive) in the test with M14; 19.8 µM (inactive) with SK-MEL-5. The results for the GI50 in the test with A498 and in the test with NCI-H23 were 17.3 µM (inactive) and 35.8 µM (inactive), respectively.
`O=[N+]([O-])c1cccc2nccc(NCC(O)CO)c12` (stereo not drawn): the GI50 in the test with NCI-H460 was 8.18 µM (inactive); in the test with SK-MEL-2 it was 11.4 µM (inactive); with HCT-116 it was 13.4 µM (inactive); in the test with HCT-15 it was 8.85 µM; in the test on SN12C, 16 µM (inactive); in the test on ACHN, 20.6 µM (inactive). The GI50 is 18.2 µM (inactive) with UO-31; 15.5 µM (inactive) in the test with OVCAR-3; 18 µM (inactive) in the test with TK-10; 14.4 µM (inactive) in the test with Malme-3M; 12.2 µM (inactive) in the test on NCI-H226; 9.55 µM (inactive) in the test on MOLT-4. Moreover, the GI50 in the test with RPMI-8226 was 12.7 µM (inactive); with OVCAR-5, 21 µM (inactive); in the test with SK-MEL-28 it was 15.7 µM (inactive); in the test with SF-268 it was 19.8 µM (inactive); in the test with M14, 17.4 µM (inactive); in the test with SK-MEL-5, 13.1 µM (inactive). For the same compound, the GI50 with A498 was 7.66 µM (inactive); with NCI-H23, 16 µM (inactive).
In the case of `CC(C)CC(N)C(=O)NC(CNC(CCC(N)=O)C(=O)NC(CC(C)C)C(=O)NC(CC(C)C)C(=O)O)Cc1ccc2ccccc2c1` (stereo not drawn), the GI50 in the test on NCI-H460 was > 10 µM (inactive); with SK-MEL-2 it was > 10 µM (inactive); with HCT-116, > 10 µM (inactive); in the test on HCT-15, more than 10 µM; in the test with SN12C, > 10 µM (inactive); in the test on ACHN, > 10 µM (inactive). Further, the GI50 with UO-31, in the test with OVCAR-3, in the test with TK-10, with Malme-3M, in the test with NCI-H226 and with MOLT-4 was > 10 µM (inactive) throughout. The GI50 in the test on RPMI-8226, in the test on OVCAR-5, in the test with SK-MEL-28, in the test on SF-268, in the test on M14 and in the test with SK-MEL-5 was > 10 µM (inactive) in each case. The GI50 in the test with A498 and in the test on NCI-H23 was > 10 µM (inactive) throughout.
As to `C=CCOCCC(CC=C)C(=O)CC(=O)OC` (stereo not drawn), the GI50 with NCI-H460 was > 100 µM (inactive); with SK-MEL-2, > 100 µM (inactive); in the test with HCT-116, 45.6 µM (inactive); in the test with HCT-15, more than 100 µM; in the test with SN12C, > 100 µM (inactive); in the test on ACHN it was > 100 µM (inactive). In addition, the GI50 was > 100 µM (inactive) with UO-31; > 100 µM (inactive) in the test on OVCAR-3; > 100 µM (inactive) in the test on TK-10; > 100 µM (inactive) in the test on Malme-3M; > 100 µM (inactive) in the test on NCI-H226; 28.5 µM (inactive) in the test with MOLT-4. The GI50 with RPMI-8226 is 25.3 µM (inactive); in the test on OVCAR-5, > 100 µM (inactive); in the test with SK-MEL-28, > 100 µM (inactive); with SF-268 it was > 100 µM (inactive); in the test on M14 it was > 100 µM (inactive); with SK-MEL-5 it was > 100 µM (inactive). Also, the GI50 in the test on A498 and in the test with NCI-H23 was > 100 µM (inactive) throughout.
In the case of `Nc1ccccc1S(=O)(=O)c1ccccc1`, the GI50 with NCI-H460 was > 100 µM (inactive); with SK-MEL-2, > 100 µM (inactive); with HCT-116, > 100 µM (inactive); in the test on HCT-15, more than 100 µM; in the test with SN12C, > 100 µM (inactive); in the test with ACHN it was > 100 µM (inactive). Further, the GI50 with UO-31 was > 100 µM (inactive); with OVCAR-3, > 100 µM (inactive); in the test on TK-10, > 100 µM (inactive); in the test with Malme-3M it was > 100 µM (inactive); in the test on NCI-H226, 51.2 µM (inactive); in the test with MOLT-4, > 100 µM (inactive). The GI50 with RPMI-8226, in the test with OVCAR-5, in the test on SK-MEL-28, in the test on SF-268, in the test with M14 and with SK-MEL-5 was > 100 µM (inactive) in each case. Further, the GI50 in the test with A498 and with NCI-H23 was > 100 µM (inactive) each time.
`CN(C)C(C1=C(O)C(c2ccccc2)N(c2ccccc2)C1=O)N1CCOCC1` (stereo not drawn): the GI50 with NCI-H460 was > 10 µM (inactive); in the test with SK-MEL-2, > 10 µM (inactive); with HCT-116, > 10 µM (inactive); in the test on HCT-15, more than 10 µM; in the test with SN12C, > 10 µM (inactive); in the test with ACHN, > 10 µM (inactive). Besides, the GI50 with UO-31, in the test with OVCAR-3, with TK-10, in the test on Malme-3M, in the test with NCI-H226 and with MOLT-4 was > 10 µM (inactive) in each case. The GI50 with RPMI-8226, in the test on OVCAR-5, in the test with SK-MEL-28, in the test with SF-268, in the test on M14 and in the test on SK-MEL-5 was > 10 µM (inactive) throughout. Besides, the GI50 with A498 and with NCI-H23 was > 10 µM (inactive) throughout.
Take `Oc1c(Br)ccc2cccnc12`: the GI50 with NCI-H460 was 1.6 µM (inactive); in the test on SK-MEL-2 it was 11.2 µM (inactive); in the test with HCT-116 it was 2.05 µM (inactive); in the test on HCT-15 it was 0.948 µM; with SN12C it was 4.73 µM (inactive); in the test on ACHN it was 3.13 µM (inactive). The GI50 was 1.64 µM (inactive) in the test on UO-31; 1.32 µM (inactive) in the test with OVCAR-3; 5.04 µM (inactive) in the test with TK-10; 3.46 µM (inactive) in the test on Malme-3M; 5.19 µM (inactive) in the test with NCI-H226; 2.02 µM (inactive) in the test on MOLT-4. The GI50 in the test on RPMI-8226 was 2.79 µM (inactive); in the test with OVCAR-5 it was 4.32 µM (inactive); with SK-MEL-28 it was 20.5 µM (inactive); in the test on SF-268, 0.646 µM (active); with SK-MEL-5, 2.38 µM (inactive); in the test on A498, 8.81 µM (inactive). Moreover, in the test on NCI-H23, the GI50 is 1.15 µM (inactive).

Values taken from ChEMBL document CHEMBL1201862, “PubChem BioAssay data set” (2004).
